Reference: patent US8119801B2, “HIV inhibiting 2-(4-cyanophenyl)-6-hydroxylaminopyrimidines” (priority 2005, dated 2012)

Key:
[1] = system: Strain IIIB, wild type HIV-LAI strain; assay: Antiviral spectrum cellular assay, strain IIIB; type: cell-based; settings: Human immunodeficiency virus 1, IIIB, read-out: pEC50 against strain IIIB (converted)
Experimental: (§1) Because of the increasing emergence of drug resistant HIV strains, the present compounds were tested for their potency against clinically isolated HIV strains harboring several mutations. These mutations are associated with resistance to reverse transcriptase inhibitors and result in viruses that show various degrees of phenotypic cross-resistance to the currently commercially available drugs such as for instance AZT and delavirdine.
(§2) The antiviral activity of the compound of the present invention is evaluated in the presence of wild type HIV and HIV mutants bearing mutations at the reverse transcriptase gene. The activity of the compounds is evaluated using a cellular assay and the residual activity is expressed in pEC50 values. The columns IIIB and A-G in the table list the pEC50 values against various strains IIIB, A-G.
Strain IIIB is wild type HIV-LAI strain;

[2] = system: Strain A, mutation Y181C in HIV reverse transcriptase; assay: Antiviral spectrum cellular assay, strain A; type: cell-based; settings: Human immunodeficiency virus 1, read-out: pEC50 against strain A (converted)
Experimental: as §1, §2
Strain A contains mutation Y181C in HIV reverse transcriptase, […]

[3] = system: Strain B, mutation K103N in HIV reverse transcriptase; assay: Antiviral spectrum cellular assay, strain B; type: cell-based; settings: Human immunodeficiency virus 1, read-out: pEC50 against strain B (converted)
Experimental: as §1, §2
Strain B contains mutation K103N in HIV reverse transcriptase, […]

[4] = system: Strain C, mutation L100I in HIV reverse transcriptase; assay: Antiviral spectrum cellular assay, strain C; type: cell-based; settings: Human immunodeficiency virus 1, read-out: pEC50 against strain C (converted)
Experimental: as §1, §2
Strain C contains mutation L100I in HIV reverse transcriptase, […]

[5] = system: Strain D, mutation Y188L and S162K in HIV reverse transcriptase; assay: Antiviral spectrum cellular assay, strain D; type: cell-based; settings: Human immunodeficiency virus 1, read-out: pEC50 against strain D (converted)
Experimental: as §1, §2
Strain D contains mutation Y188L and S162K in HIV reverse transcriptase, […]

[6] = system: Strain E, mutations L100I and K103N in HIV reverse transcriptase; assay: Antiviral spectrum cellular assay, strain E; type: cell-based
Experimental: as §1, §2
Strain E contains mutations L100I and K103N in HIV reverse transcriptase, […]

[7] = system: Strain F, mutations K101E and K103N in HIV reverse transcriptase; assay: Antiviral spectrum cellular assay, strain F; type: cell-based
Experimental: as §1, §2
Strain F contains mutations K101E and K103N in HIV reverse transcriptase.

[8] = system: Strain G, mutations L100I, K103N, E138G, V179I, Y181C, L214F, V276V/I and A327A/V in HIV reverse transcriptase; assay: Antiviral spectrum cellular assay, strain G; type: cell-based; settings: for EC50: Human immunodeficiency virus 1, read-out: pEC50 against strain G (converted)
Experimental: as §1, §2

[9] = compared to reference compound A

SMILES	EC50 [1] [nM]	EC50 [2] [nM]	EC50 [3] [nM]	EC50 [4] [nM]	EC50 [5] [nM]	EC50 ([6]; Human immunodeficiency virus 1, read-out: pEC50 against strain E (converted)) [nM]	activity against double mutant strain E compared to reference compound A [6, 9]	EC50 ([7]; Human immunodeficiency virus 1, read-out: pEC50 against strain F (converted)) [nM]	activity against double mutant strain F compared to reference compound A [7, 9]	EC50 [8] [nM]	activity against multiple mutated strain G compared to reference compound A [8, 9]	melting point
Cc1cc(C#N)cc(C)c1Oc1nc(Nc2ccc(C#N)cc2)nc(NO)c1Br [Compound 1, 4-[[6-hydroxylamino-5-bromo-2-[(4-cyanophenyl)amino]-4-pyrimidinyl]oxy]-3,5-dimethylbenzonitrile]	3.98	12	2.34	1.2	3.02	1.86	improved activity	3.63	improved activity	479	improved activity	211 °C (dec.)
Cc1cc(C#N)cc(C)c1Oc1nc(Nc2ccc(C#N)cc2)nc(N)c1Br [Compound A, reference compound]	2.82	10								5750		
